Test results from article PMC6174881 (Journal of medicinal chemistry, 2018).
Where two headings read alike, the source gives them in different places. Square brackets hold non-standard residues; d marks the D form. Peptide text beside a SMILES is read from it. hPhe = N[C@@H](CCc1ccccc1)C(=O)O; Nle = CCCC[C@H](N)C(=O)O

Columns and labels:
mMC1R [1] = biological target: T1, mMC1R (Mus musculus, UniProt Q01727)
mMC1R [2] = biological target: T1, mMC1R; test: cell-based
mMC5R = mMC5R (Mus musculus, UniProt P41149); test: AlphaScreen cAMP assay, agonist/inverse agonist activity at mMC5R; conditions: for mMC5R activity in words: up to 100 μM; for mMC5R inverse agonist efficacy (−X%): relative to basal, apparent sigmoidal dose-response
mMC3R [3] = biological target: T2, mMC3R (Mus musculus, UniProt P33033)
mMC4R [4] = biological target: T3, mMC4R (Mus musculus, UniProt P56450)
mMC4R [5] = biological target: T3, mMC4R; conditions: for fold increase in potency at the mMC4R compared to 1: calculated using Ki values from Schild analysis
mMC3R [6] = biological target: T2, mMC3R; remark: listed apart in the source
mMC3R [7] = biological target: T2, mMC3R; conditions: cited from earlier work
mMC4R [8] = biological target: T3, mMC4R; conditions: cited from earlier work
[9] = biological target: mouse melanocortin-1 receptor (mouse) (UniProt Q01727)
mMC4R [10] = biological target: T3, mMC4R; conditions: depending on the cAMP assay utilized; cited from earlier work
MC1R = conditions: read-out: MC1R agonist EC50; cited from earlier work
[11] = maximal stimulation relative to NDP-MSH, sigmoidal dose-response
[12] = calculated using antagonist Ki values
[13] = calculated using Ki values from Schild analysis
[14] = β-galactosidase reporter gene assay

T1 sequence (Q01727 whole entry): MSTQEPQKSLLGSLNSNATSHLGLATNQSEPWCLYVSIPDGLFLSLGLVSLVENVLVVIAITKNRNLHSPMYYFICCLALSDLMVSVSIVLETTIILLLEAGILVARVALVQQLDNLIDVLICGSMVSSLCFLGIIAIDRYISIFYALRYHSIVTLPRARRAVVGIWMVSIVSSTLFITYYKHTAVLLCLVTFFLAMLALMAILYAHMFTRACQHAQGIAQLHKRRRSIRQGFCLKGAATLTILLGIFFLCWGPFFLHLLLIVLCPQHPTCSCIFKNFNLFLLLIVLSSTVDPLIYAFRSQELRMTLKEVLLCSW
T3 sequence (P56450 whole entry): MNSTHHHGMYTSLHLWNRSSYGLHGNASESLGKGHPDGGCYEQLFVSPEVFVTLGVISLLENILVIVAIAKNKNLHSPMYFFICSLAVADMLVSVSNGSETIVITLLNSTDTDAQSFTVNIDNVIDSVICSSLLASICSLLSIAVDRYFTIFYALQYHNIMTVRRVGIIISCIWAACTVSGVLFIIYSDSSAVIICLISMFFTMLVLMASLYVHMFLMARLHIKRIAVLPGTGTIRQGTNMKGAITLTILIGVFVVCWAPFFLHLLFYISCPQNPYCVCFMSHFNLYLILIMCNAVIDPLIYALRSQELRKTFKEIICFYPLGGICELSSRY
mMC5R, sequence (P41149 whole entry): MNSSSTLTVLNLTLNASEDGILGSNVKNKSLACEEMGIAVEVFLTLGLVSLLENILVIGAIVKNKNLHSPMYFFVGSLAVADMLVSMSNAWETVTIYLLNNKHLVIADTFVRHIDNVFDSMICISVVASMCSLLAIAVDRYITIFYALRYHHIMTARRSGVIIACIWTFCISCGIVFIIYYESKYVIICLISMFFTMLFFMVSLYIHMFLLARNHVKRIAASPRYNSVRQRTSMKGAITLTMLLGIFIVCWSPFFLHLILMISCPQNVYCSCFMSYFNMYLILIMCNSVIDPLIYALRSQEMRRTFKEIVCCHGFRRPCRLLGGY
T2 sequence (P33033 whole entry): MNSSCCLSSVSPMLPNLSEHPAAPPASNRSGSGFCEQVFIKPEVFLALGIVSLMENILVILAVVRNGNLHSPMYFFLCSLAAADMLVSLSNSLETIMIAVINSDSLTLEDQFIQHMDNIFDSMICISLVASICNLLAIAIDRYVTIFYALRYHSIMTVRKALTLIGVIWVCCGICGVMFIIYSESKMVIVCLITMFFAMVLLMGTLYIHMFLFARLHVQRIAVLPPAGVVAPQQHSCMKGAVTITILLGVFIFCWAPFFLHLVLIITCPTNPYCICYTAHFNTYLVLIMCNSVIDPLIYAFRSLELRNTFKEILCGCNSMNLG
mouse melanocortin-1 receptor (mouse), sequence (Q01727 whole entry): as the sequence (Q01727 whole entry) above

**Q.** With C[C@@H]1NC(=O)[C@H](CN)NC(=O)[C@H](Cc2ccccc2)NC(=O)[C@H](Cc2ccccc2)NC(=O)[C@H](CCCNC(=N)N)NC(=O)[C@@H]2CCCN2C(=O)[C@H]2CCCN2C(=O)[C@H](Cc2ccccc2)NC1=O [Compound 5, c[Pro-Arg-Phe-Phe-Dap-Ala-Phe-DPro]] as the molecule, how does the “mMC1R partial agonist activity (X%), receptor stimulated to given percent” value (mMC1R [1]; [11]) read?
**A.** 80%

**Q.** What about the EC50 (mMC1R [2]) of the same molecule?
**A.** 1600 ± 400 nM

**Q.** What about the EC50 (mMC5R) of the same molecule?
**A.** > 100000 nM

**Q.** And the Kb (mMC3R [3])?
**A.** 63.1 nM

**Q.** With C[C@@H]1NC(=O)[C@H](CCCNC(=N)N)NC(=O)[C@H](CCc2ccccc2)NC(=O)[C@H](Cc2ccccc2)NC(=O)[C@H](CCCNC(=N)N)NC(=O)[C@@H]2CCCN2C(=O)[C@H]2CCCN2C(=O)[C@H](Cc2ccccc2)NC1=O [Compound 21, c[Pro-Arg-Phe-hPhe-Arg-Ala-Phe-DPro]] (cyclo(RF[hPhe]RAF[dP]P)) as the molecule, how does the “Antagonist mMC4R pA2” value (mMC4R [4]) read?
**A.** 8.9

**Q.** What about the “mMC5R activity in words” value (mMC5R) of the same molecule?
**A.** did not result in mMC5R stimulation

**Q.** What about the “fold less potent than AGRP at the mMC3R” value (mMC3R [3]) of the same molecule?
**A.** 5 fold

**Q.** What about the “mMC4R potency compared to AGRP in words” value (mMC4R [5]) of the same molecule?
**A.** equipotent to AGRP

**Q.** And the “fold increase in potency at the mMC4R compared to 1” value (mMC4R [5])?
**A.** 6 fold

**Q.** And the “fold decrease in mMC4R selectivity compared to 1” value (mMC4R [5]; [12])?
**A.** 7 fold

**Q.** With CCCC[C@@H]1NC(=O)[C@H](CO)NC(=O)[C@H](CCCNC(=N)N)NC(=O)[C@H](CCc2ccccc2)NC(=O)[C@H](Cc2ccccc2)NC(=O)[C@H](CCCNC(=N)N)NC(=O)[C@@H]2CCCN2C(=O)[C@H]2CCCN2C1=O [Compound 24, c[Pro-Arg-Phe-hPhe-Arg-Ser-Nle-DPro]] (cyclo(RF[hPhe]RS[Nle][dP]P)) as the molecule, how does the “mMC1R partial agonist activity (X%), receptor stimulated to given percent” value (mMC1R [1]) read?
**A.** 25%

**Q.** What about the “fold increase in potency at the mMC3R compared to 1” value (mMC3R [3]; [13]) of the same molecule?
**A.** greater than 10 fold

**Q.** Which EC50 (mMC1R [2]) does the source give for N=C(N)NCCC[C@@H]1NC(=O)[C@@H]2CCCN2C(=O)[C@H]2CCCN2C(=O)[C@H](Cc2ccccc2)NC(=O)[C@H](CO)NC(=O)[C@H](CC(N)=O)NC(=O)[C@H](Cc2ccccc2)NC(=O)[C@H](Cc2ccccc2)NC1=O [Compound 3, c[Pro-Arg-Phe-Phe-Asn-Ser-Phe-DPro]] (cyclo(RFFNSF[dP]P)) here?
**A.** 1200 ± 300 nM

**Q.** What about the EC50 (mMC5R) of the same molecule?
**A.** 6 ± 3 nM

**Q.** And the “mMC5R inverse agonist efficacy (−X%)” value (mMC5R)?
**A.** −14%

**Q.** And the “mMC5R activity in words” value (mMC5R)?
**A.** inverse agonist activity was observed

**Q.** What about the Kb (mMC3R [3]) of the same molecule?
**A.** 794 nM

**Q.** What about the Kb (mMC4R [5]) of the same molecule?
**A.** 7.94 nM

**Q.** And the “fold increase in potency at the mMC4R compared to 1” value (mMC4R [5])?
**A.** ≤ 10 fold

**Q.** What does the source list for C[C@@H]1NC(=O)[C@H](CC(N)=O)NC(=O)[C@H](CCc2ccccc2)NC(=O)[C@H](Cc2ccccc2)NC(=O)[C@H](CCCNC(=N)N)NC(=O)[C@@H]2CCCN2C(=O)[C@H]2CCCN2C(=O)[C@H](Cc2ccccc2)NC1=O [Compound 13, c[Pro-Arg-Phe-hPhe-Asn-Ala-Phe-DPro]]?
**A.** Antagonist mMC3R pA2 (mMC3R [6]): 5.6±0.2; mMC3R antagonist activity in words (mMC3R [7]; [14]): did not possess antagonist activity; fold less potent than 1 at the mMC4R (mMC4R [8]; [14]): 5 fold; EC50 (mMC5R): > 100000 nM; Kb (mMC3R [3]): 2510 nM; Antagonist mMC3R pA2 (mMC3R [3]; Schild analysis with agonist NDP-MSH, pA2 = −log[Ki]): 5.6; fold reduced potency at the mMC3R compared to 1 (mMC3R [3]; [13]): 5 fold; Kb (mMC4R [5]): 5.01 nM; mMC4R potency compared to lead peptide 1 in words (mMC4R [5]): equipotent to the lead peptide; selectivity for the mMC4R over the mMC3R (mMC4R [5]; [12]): approximately 500 fold

**Q.** Which agonist EC50, cAMP (AlphaScreen), HEK293 cells stably expressing mMC1R [9] does the source give for cyclo(PRF[hPhe]RS[Nle][dP]) here?
**A.** 400 nM

**Q.** Which results are given for C[C@@H]1NC(=O)[C@H](CC(N)=O)NC(=O)[C@H](Cc2ccccc2)NC(=O)[C@H](Cc2ccccc2)NC(=O)[C@H](CCCNC(=N)N)NC(=O)[C@@H]2CCCN2C(=O)[C@H]2CCCN2C(=O)[C@H](Cc2ccccc2)NC1=O [Compound 1, c[Pro-Arg-Phe-Phe-Asn-Ala-Phe-DPro]]?
**A.** mMC1R partial agonist activity (X%), receptor stimulated to given percent (mMC1R [1]; [11]): 80%; mMC4R pA2 (mMC4R [10]): 7.7–8.1; EC50 (mMC1R [2]): 2800 ± 600 nM

**Q.** Which “mMC1R partial agonist activity (X%), receptor stimulated to given percent” value (mMC1R [1]) does the source give for C[C@@H]1NC(=O)[C@H](CCCNC(=N)N)NC(=O)[C@H](Cc2ccccc2)NC(=O)[C@H](Cc2ccccc2)NC(=O)[C@H](CCCNC(=N)N)NC(=O)[C@@H]2CCCN2C(=O)[C@H]2CCCN2C(=O)[C@H](Cc2ccccc2)NC1=O [Compound 9, c[Pro-Arg-Phe-Phe-Arg-Ala-Phe-DPro]] (cyclo(RFFRAF[dP]P)) here?
**A.** 25%

**Q.** And the EC50 (mMC1R [2])?
**A.** 600 ± 200 nM

**Q.** What about the EC50 (mMC5R) of the same molecule?
**A.** > 100000 nM

**Q.** And the Kb (mMC3R [3])?
**A.** 39.8 nM

**Q.** What about the “fold increase in potency at the mMC3R compared to 1” value (mMC3R [3]; [13]) of the same molecule?
**A.** greater than 10 fold

**Q.** What about the Kb (mMC4R [5]) of the same molecule?
**A.** 2 nM

**Q.** For CCCC[C@@H]1NC(=O)[C@H](C)NC(=O)[C@H](CC(N)=O)NC(=O)[C@H](Cc2ccccc2)NC(=O)[C@H](Cc2ccccc2)NC(=O)[C@H](CCCNC(=N)N)NC(=O)[C@@H]2CCCN2C(=O)[C@H]2CCCN2C1=O [Compound 2, c[Pro-Arg-Phe-Phe-Asn-Ala-Nle-DPro]], which “mMC1R partial agonist activity (X%), receptor stimulated to given percent” value (mMC1R [1]; [11]) is on record?
**A.** 50%

**Q.** And the EC50 (mMC1R [2])?
**A.** 1700 ± 300 nM

**Q.** What about the EC50 (mMC5R) of the same molecule?
**A.** 10 ± 6 nM

**Q.** What about the “mMC5R inverse agonist efficacy (−X%)” value (mMC5R) of the same molecule?
**A.** −20%

**Q.** What about the “mMC5R activity in words” value (mMC5R) of the same molecule?
**A.** inverse agonist activity was observed

**Q.** And the Kb (mMC3R [3])?
**A.** 251 nM

**Q.** What about the Kb (mMC4R [5]) of the same molecule?
**A.** 1.26 nM

**Q.** What about the “fold increase in potency at the mMC4R compared to 1” value (mMC4R [5]) of the same molecule?
**A.** ≤ 10 fold

**Q.** Which results are given for CCCC[C@@H]1NC(=O)[C@H](C)NC(=O)[C@H](CCCNC(=N)N)NC(=O)[C@H](CCc2ccccc2)NC(=O)[C@H](Cc2ccccc2)NC(=O)[C@H](CCCNC(=N)N)NC(=O)[C@@H]2CCCN2C(=O)[C@H]2CCCN2C1=O [Compound 22, c[Pro-Arg-Phe-hPhe-Arg-Ala-Nle-DPro]] (cyclo(RF[hPhe]RA[Nle][dP]P))?
**A.** mMC1R agonist activity in words (mMC1R [1]; up to 100 μM): did not possess agonist activity; fold increase in potency at the mMC3R compared to 1 (mMC3R [3]; [13]): greater than 10 fold

**Q.** With “Tyr-c[Cys-Arg-Phe-Phe-Asn-Ala-Phe-Cys]-Tyr [hAGRP(109–118), reference compound]” as the molecule, how does the “mMC3R activity in words” value (mMC3R [7]; β-galactosidase reporter gene bioassay, up to 10 μM) read?
**A.** No activity (Agonist or Antagonist)

**Q.** And the “Antagonist mMC4R pA2” value (mMC4R [8]; β-galactosidase reporter gene bioassay)?
**A.** 6.8±0.4

**Q.** What about the EC50 (MC1R) of the same molecule?
**A.** 3000 nM
